Experimental data published in US8563559B2 (Rigel Pharmaceuticals, Inc., priority 2006, dated 2013).

Biological target: T1, Axl (Homo sapiens, UniProt P30530)
T1 construct: endogenous in cells; host or cells: HeLa
T1 sequence (P30530 26-894): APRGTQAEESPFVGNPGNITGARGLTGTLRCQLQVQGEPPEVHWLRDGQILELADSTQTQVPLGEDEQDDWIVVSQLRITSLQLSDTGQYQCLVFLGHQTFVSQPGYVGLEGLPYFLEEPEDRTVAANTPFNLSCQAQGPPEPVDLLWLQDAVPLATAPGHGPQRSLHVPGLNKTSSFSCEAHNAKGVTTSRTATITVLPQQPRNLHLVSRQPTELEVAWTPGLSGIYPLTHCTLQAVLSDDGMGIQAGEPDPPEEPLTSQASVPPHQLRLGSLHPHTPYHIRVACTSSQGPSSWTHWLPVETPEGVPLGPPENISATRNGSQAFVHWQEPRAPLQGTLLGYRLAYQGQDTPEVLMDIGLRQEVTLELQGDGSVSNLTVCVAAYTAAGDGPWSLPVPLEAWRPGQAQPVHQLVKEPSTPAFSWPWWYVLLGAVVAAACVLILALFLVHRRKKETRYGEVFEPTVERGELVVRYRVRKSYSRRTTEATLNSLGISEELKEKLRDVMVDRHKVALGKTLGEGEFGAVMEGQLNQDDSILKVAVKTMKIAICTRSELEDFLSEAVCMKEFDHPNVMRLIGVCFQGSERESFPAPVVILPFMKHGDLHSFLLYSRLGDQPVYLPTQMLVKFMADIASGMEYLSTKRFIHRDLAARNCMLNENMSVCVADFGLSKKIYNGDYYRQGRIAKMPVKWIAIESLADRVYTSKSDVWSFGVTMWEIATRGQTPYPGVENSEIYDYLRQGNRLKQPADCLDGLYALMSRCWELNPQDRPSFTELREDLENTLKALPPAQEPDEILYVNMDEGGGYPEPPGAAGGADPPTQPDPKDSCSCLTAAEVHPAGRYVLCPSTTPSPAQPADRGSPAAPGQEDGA
Assay: Phospho-AKT in-cell Western assay (inhibition of Axl activity)
Type: cell-based
Conditions: Table 3, formula (Ic); Hela cells, Axl antibody cross-linking stimulation, phospho-Akt chemiluminescence normalized to relative cell number
In short: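 HeLa cells were starved 24 h in 0.5% FCS with Axl/Fc 500 ng/mL, pre-treated with compound for 1 h at 37 °C, then stimulated 5 min by anti-Axl antibody cross-linking. Fixed cells were probed for phospho-AKT with an HRP-linked in-cell Western and read by chemiluminescence.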

IC50: < 1 µM
SMILES: CCN(CC)CCN1CCOc2cc(Nc3ncc(F)c(N[C@@]4(C)[C@@H](C(=O)NC)C[C@H]5C[C@@H]4C5(C)C)n3)ccc21 [Compound 46, (1R,2R,3S,5R)-2-(5-fluoro-2-((3,4-dihydro-4-(2-(diethylamino)ethyl)-2H-benzo[b][1,4]oxazin-7-yl)amino)pyrimidin-4-ylamino)-N,2,6,6-tetramethylbicyclo[3.1.1]heptane-3-carboxamide]
